Experimental data: patent publication US20210038607A1, “OXADIAZOLYLTHIOPHENE DERIVATIVES USEFUL AS HISTONE DEACETYLASE INHIBITORS” (Karus Therapeutics Limited, priority 2018, published 2021)

test system: acetylated histone H3 in A549 lung adenocarcinoma cells; assay: Acetylated histone H3 in-cell western (ICW) assay; assay type: cell-based; conditions: Homo sapiens, 16 h exposure, relative to 40 μM Trichostatin A positive control, read-out: EC50 Ac-histone H3, A549 cells
In short: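 A549 cells exposed to compound for 16 h at 37 °C (0.4% DMSO final), then fixed and immunostained for acetylated α-tubulin or histone H3 with near-infrared detection, signal normalised to cell stain. Response expressed relative to DMSO controls and to 40 μM scriptaid (tubulin) or 40 μM TSA (H3); EC50 by constrained nonlinear regression.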

Row | Structure (SMILES) | EC50 [µM]
1 | CS(=O)(=O)c1nccc(N(Cc2ccc(-c3noc(C(F)(F)F)n3)s2)c2cnccn2)n1 [Example CE, 2-Methanesulfonyl-N-(pyrazin-2-yl)-N-({5-[5-(trifluoromethyl)-1,2,4-oxadiazol-3-yl]thiophen-2-yl}methyl)pyrimidin-4-amine] | ≥ 10
2 | FC(F)(F)c1ccc(N(Cc2ccc(-c3noc(C(F)(F)F)n3)s2)c2cnccn2)nn1 [Example DH, N-(Pyrazin-2-yl)-6-(trifluoromethyl)-N-({5-[5-(trifluoromethyl)-1,2,4-oxadiazol-3-yl]thiophen-2-yl}methyl)pyridazin-3-amine] | ≥ 10
3 | FC(F)(F)c1nc(-c2ccc(CN(c3cnccn3)c3ccc(N4CCCC4)nn3)s2)no1 [Example DI, N-(Pyrazin-2-yl)-6-(pyrrolidin-1-yl)-N-({5-[5-(trifluoromethyl)-1,2,4-oxadiazol-3-yl]thiophen-2-yl}methyl)pyridazin-3-amine] | ≥ 10
4 | CS(=O)(=O)c1ccc(N(Cc2ccc(-c3noc(C(F)(F)F)n3)s2)c2cnccn2)nn1 [Example DL, 6-Methanesulfonyl-N-(pyrazin-2-yl)-N-({5-[5-(trifluoromethyl)-1,2,4-oxadiazol-3-yl]thiophen-2-yl}methyl)pyridazin-3-amine] | ≥ 10
